Measured values taken from US20170027973A1, “MODULARION OF INVARIANT NATURAL KILLER T CELLS IN THE TREATMENT OF SEPSIS” (LONDON HEALTH SCIENCES CENTRE RESEARCH INC., priority 2014, published 2017).

Experiments:
Type in all cases: in vivo, mouse
serum IL-4 and IFN-γ = assay: Serum IL-4 and IFN-γ by ELISA after i.p. glycolipid injection into naïve B6 mice
Protocol: FIG. 10: Effect of glycolipid agonists on cytokine expression in naïve B6 mice, and on iNKT cells in septic B6 mice. (a) Naïve B6 mice were injected i.p. with 4 μg OCH or KRN7000 or C20:2, and bled at 2, 12, and 24 hours post-injection. Serum samples were assayed for IL-4 and IFN-γ by enzyme-linked immunosorbent assay (ELISA). […] Vehicle-treated mice had cytokine levels below limits of detection. (b) B6 mice were given an intraperitoneal injection of fecal slurry (500 μL of a 90 mg/mL solution) to induce IAS and concomitantly treated with 4 μg of vehicle, OCH, or KRN7000. After 24 hours, mice were sacrificed, and cell suspensions from the liver and spleen were stained for the flow cytometric detection of CD1d tetramer+ TCRβ+iNKT cells.
(§1) Lyophilized OCH was generously provided by the National Institutes of Health (NIH) Tetramer Core Facility (Emory University, Atlanta, Ga.). Each vial containing 0.2 mg of OCH was solubilized in a vehicle solution containing 1 mL of sterile distilled water, 0.5% Tween 20, 56 mg of sucrose and 7.5 mg of histidine, and stored as aliquots at 4° C. until use. KRN7000 (α-GalCer, C26:0/C18:0) was purchased from Funakoshi Co. Ltd. (Tokyo, Japan), solubilized at 1 mg/ml in dimethylsulphoxide (DMSO), and stored as aliquots at −20° C. until use (29); the control vehicle was 2% DMSO in phosphate-buffered saline (PBS). C20:2 was synthesized and used as previously published (30, 31). For in vivo experiments, mice were injected intraperitoneally (i.p.) with a single dose of glycolipid (4 μg/dose) (30) within twenty minutes after induction of IAS.
Cytokine concentrations were determined by commercially available specific ELISA assays for IL-4 and IFN-γ (Ready-Set-Go kits, eBioscience). ODs were measured on a Benchmark Microplate Reader (Bio-Rad) at a wavelength of 450 nm for both cytokines.

[1] = test system: B6 mice with intra-abdominal sepsis (IAS); assay: Murine intra-abdominal sepsis (IAS) model: survival and murine sepsis score (MSS); settings: septic B6 mice; for median survival: 4 μg i.p. single dose, vehicle 24 hours; for murine sepsis score (MSS) after 24 h: compared to vehicle treatment
Protocol: Stool from the cecum of euthanized naïve B6 mice was expressed through an enterotomy, homogenized, and suspended in 0.9% normal saline (NS) to produce a fecal slurry at a final concentration of 90 mg/mL, for use in experiments on the same day. Mice were injected intraperitoneally with 500 μL fecal slurry or 0.9% normal saline (sham group). The mice were monitored and scored by two independent investigators—one of whom was blinded to the treatment—every 2-3 hours for the first 12 hours, and then every 1-2 hours thereafter. A murine sepsis score (MSS) was assigned to each mouse based on activity, eye movement, response to exogenous stimuli, breathing rate and pattern, and degree of piloerection (Shrum et al. BMC Research Notes 2014, 7:233). The MSS is a reliable and robust scoring system that has excellent inter-rater reliability (intra-class coefficient=0.96), high internal consistency (Cronbach α=0.92), and correlates with levels of certain pro-inflammatory cytokines such as IFN-γ and IL-1β during the experimental timeline (Shrum et al. BMC Research Notes 2014, 7:233). Mice were euthanized at 24 hours, or earlier if they were deemed to be in significant distress based on our scoring model. Euthanasia was carried out as described above. At the time of sacrifice, intra-cardiac blood was drawn into 1.5 mL micro-centrifuge tubes (BD Biosciences) and centrifuged for serum at 1000×g for 30 minutes at 4° C.
as §1

splenocyte apoptosis = assay: Histology (H&E) and TUNEL staining of spleen, liver and omentum of septic B6 mice; settings: for liver histopathology: among vehicle-, OCH- and KRN-treated mice; for lymphocytes in the omentum: histology; for histopathological scoring of degree of apoptosis in spleen: vehicle-treated: moderate
Excerpt: FIG. 6: Histopathology of septic B6 mice treated with glycolipid agonists of iNKT cells. […] Lymphocyte migration to the omentum is also ameliorated in OCH-treated mice compared to vehicle- and KRN7000-treated mice. There were no histopathological differences in the liver. Images are representative of 4 animals per treatment group (size bar, 50 μm). (b) Histopathological scoring of the degree of apoptosis observed within the spleens of sham and septic B6 mice treated with vehicle, KRN7000, or OCH (n=4 animals per treatment group). Apoptosis was defined histologically by the presence of cell clusters with nuclear shrinkage (karyorrhexis), dark eosinophilic cytoplasm, intact plasma membrane, and relative paucity of surrounding inflammatory cells within the splenic follicles on H&E staining. Scores assigned to each animal by a blinded independent pathologist were as follows: 0 for complete absence of apoptosis; 1 for mild presence of apoptosis (0-15% per follicle); 2 for moderate apoptosis (16-30% per follicle); and 3 for severe apoptosis (31-45% per follicle). ***p<0.0001 by two-tailed Mann Whitney U test.
Liver, spleen, and omentum from sham B6 mice, and vehicle-, OCH-, and KRN7000-treated septic B6 mice were fixed in 10% neutral buffered formalin, embedded in paraffin, sectioned, and stained with H&E or subjected to TUNEL staining using a commercially available kit (Calbiochem). At least four stained sections per spleen from four animals per treatment group were examined and scored for apoptosis by a board-certified veterinary pathologist (Welch) who was blinded to the study design. Apoptosis was defined histologically by the presence of cell clusters with nuclear shrinkage (karyorrhexis), dark eosinophilic cytoplasm, intact plasma membrane, and relative paucity of surrounding inflammatory cells within the splenic follicles on H&E staining (34). Scores assigned to each animal were as follows: 0 for complete absence of apoptosis; 1 for mild presence of apoptosis (0-15% per follicle); 2 for moderate apoptosis (16-30% per follicle); and 3 for severe apoptosis (31-45% per follicle). Photomicrographs were taken using a Nikon DS-Fi1 digital camera using NIS-elements software.

| SMILES | serum levels of IFN-γ between 12 and 24 hours (serum IL-4 and IFN-γ; 4 μg i.p.) | response to auditory and touch stimuli [1] | median survival [1] | mortality ([1]; by 24 hours) | time to respiratory distress (laboured breathing and reduced respiratory rates) ([1]; most mice, post-sepsis) | murine sepsis score (MSS) after 24 h [1] | liver histopathology (splenocyte apoptosis) | lymphocytes in the omentum (splenocyte apoptosis) | histopathological scoring of degree of apoptosis in spleen (splenocyte apoptosis) | serum IFN-γ at 24 hours (serum IL-4 and IFN-γ; 4 μg i.p.) | time of peak of serum IFN-γ (serum IL-4 and IFN-γ; 4 μg i.p., ELISA) | time of peak of serum IL-4 (serum IL-4 and IFN-γ; 4 μg i.p., ELISA) | serum IL-4 at 12 to 24 hours (serum IL-4 and IFN-γ; 4 μg i.p., relative to 2 hour peak) | IL-4:IFN-γ ratio based on peak values (serum IL-4 and IFN-γ; OCH compared to KRN7000) | survival time ([1]; 4 μg i.p.) | respiratory status ([1]; observed up to 24 hours) | course of MSS over time ([1]; up to 24 hours) | apoptotic cells within the spleen (H&E, TUNEL) (splenocyte apoptosis; compared to vehicle- and KRN7000-treated mice) |
| --- | --- | --- | --- | --- | --- | --- | --- | --- | --- | --- | --- | --- | --- | --- | --- | --- | --- | --- |
| CCCCCCCCCCCCCCCCCCCCCCCCCC(=O)N[C@@H](CO[C@H]1O[C@H](CO)[C@H](O)[C@H](O)[C@H]1O)[C@H](O)[C@H](O)CCCCCCCCCCCCCC [KRN7000, reference compound] | elevated | non-responsive | 22 h | 100% | ≤ 15 h | no statistical differences | did not observe overt differences | significant increase | severe (3 for severe apoptosis (31-45% per follicle)) |  |  |  |  |  |  |  |  |  |
| CCCCCCCCCCCCCCCCCCCCCCCC(=O)N[C@@H](COC1OC(CO)C(O)C(O)C1O)[C@H](O)[C@H](O)CCCCC (stereo partly drawn) [OCH] |  | more responsive | 28 h |  |  | significantly lower | did not observe overt differences | fewer | mild (1 for mild presence of apoptosis (0-15% per follicle)) | almost undetectable | 12 h | 2 h | significantly reduced | higher | > 24 h | relatively normal respiratory rates | reached a plateau | significant reduction |
